Assay results as given in patent publication US10314912B2, “Polymer coating compositions and coated products” (Ariste Medical, LLC, priority 2012, dated 2019).

Assays:
[1] = HPLC test of drug stability to curing light in coating composition components
Experimental: HPLC tests were performed to assess the effects of various components of the coating composition on drug stability. HPLC analysis was run on the starting 50 μg/ml drug solution as a control. HPLC parameters were as follows: Channel A=>35 mM sodium phosphate pH=7.5 w/1 v % TEA; Channel B=>acetonitrile; 0-50% B 0-10 min, 50% B 10-13 min, 50-0% B 13-15 min, 0% B 6 min post time; 20 μl injections; 1 ml/min; 30° C.; 335 nm. […] Samples tested included: (1) Solvent+Drug; (2) Solvent+Photoinitiator (PI)+Drug; and (3) Solvent+Monomer Component+PI+Drug. […] The Solvent+PI+Drug (Sample 2) samples were prepared as follows: 1% wt/wt IrgaCure® 2959 was added to the 50 μg/ml drug solution solutions and cured according to the parameters described for Formulation 5 in Table 2. The Solvent+Monomer Component+PI+Drug+Drug (Sample 3) were prepared as follows: ˜3 ml Formulation 5 (Table 2) inspired solution with exception of using the 50 μg/ml drug solution and 20 wt % comonomer as the solvent was created and exposed to cure parameters detailed for Formulation 5 (Table 2) followed by HPLC analysis upon blending 1:1 with methanol, to terminate polymerization reaction/free-radicals. Note: polymerization of small volumes of Formulation 5 results in evaporation of the acetone solvent, thereby concentrating the monomers. […] FIG. 5A depicts HPLC chromatograms from the Sample 1 (dark gray line) and Sample 2 (light gray line) without exposure to light. […] FIG. 5B depicts chromatograms from the Sample 1 samples without light exposure and with light exposure. […] FIG. 5C depicts chromatograms from Sample 2 without light exposure and with light exposure. […] FIG. 5D depicts chromatograms from Sample 1 and Sample 3 after exposure to light.

[2] = HPLC of methanol extracts: drug loading of coated ePTFE hernia mesh; format: physicochemical; details: soak in 10 mg/ml of each drug in methanol, ~17 hours, 4° C
Experimental: Specimens were then removed from drug solution and dried in air. Following air-drying, specimens were rinsed in either methanol) or water. For the methanol rinse, specimens were suspended using forceps and agitated by hand in two consecutive 15 ml methanol rinses for 15 seconds, then allowed to air dry. For the water rinse, specimens were transferred to 10 ml of deionized water in conical tubes and aggressively vortexed for 2 minutes. Specimens were then allowed to air dry. The above steps resulting in the following four conditions: (a) 1 coat—water rinse; (b) 3 coats—water rinse; (c) 1 coat—methanol rinse; and (d) 3 coat—methanol rinse.
Dried specimens were individually extracted in 1 ml of methanol at 4° C. for 64 or 76 hours. 20 μl of each extract were run on HPLC to assess the effects of rinse method and number of coating cycles on drug loading of the coatings. HPLC conditions were as follows: 30° C.; 250×3 mm C-18 with 5 μm packing; 280 nm absorbance; Channel A—35 mM Na2HPO4 with 1 vol % triethylamine, pH=8.1 w/phosphoric acid; Channel B—acetonitrile/Running parameters at 1 ml/min: (i) 0-10 minutes—gradient 0-50 vol % Channel B; (ii) 10-20 minutes—50 vol % Channel B; (iii) 20-25 minutes—20-0 vol % Channel B.

- drug stability (HPLC peaks) ([1]; 50 μg/ml in acetone, with or without photoinitiator, without exposure to light, FIG. 5A): stable
- drug stability (HPLC peaks) ([1]; Sample 1, solvent alone, with light exposure, FIG. 5B): degraded by light exposure
SMILES: CO[C@H]1/C=C/O[C@@]2(C)Oc3c(C)c(O)c4c(O)c(c(/C=N/N5CCN(C)CC5)c(O)c4c3C2=O)NC(=O)/C(C)=C\C=C\[C@H](C)[C@H](O)[C@@H](C)[C@@H](O)[C@@H](C)[C@H](OC(C)=O)[C@@H]1C [rifampin]
- drug stability (HPLC peaks) ([1]; Sample 2, solvent + 1% wt/wt IrgaCure 2959, with light exposure, FIG. 5C): did not protect the drugs from light-induced degradation
- absorption of drug into polymerized coating [2]: absorbed into the methacrylate coating matrix
